Data set [1] concerns the target T1, GluN2D-containing receptors (Rattus norvegicus, UniProt Q62645).
T1 construct: expressed in transfected cells; host or cells: Xenopus laevis oocytes
Kind of data set: Two-electrode voltage-clamp inhibition of GluN2D-containing NMDA receptors in Xenopus laevis oocytes. Format: cell-based. As for the experimental part: (§1) IC50 values were obtained by fitting the Hill equation to the average composite concentration-effect curves.
(§2) Xenopus laevis oocytes were isolated and maintained as described in Hansen & Traynelis, J Neurosci 2011, 31, 3650-3661. Oocytes were placed in a perfusion chamber with recording solution comprised of (in mM) 90 NaCl, 1 KCl, 0.5 BaCl2, 0.005 EDTA and 10 HEPES, pH adjusted to 7.4 with NaOH at 23° C. The glass electrodes used had tip resistance of 0.5-2.0 MΩ and were filled with 0.3-3.0 M KCl. Compounds were made as 20 mM stock solutions in DMSO and diluted to final concentrations in recording solution (final DMSO was 0.1-0.05% vol/vol). The current recordings were performed using a Warner OC-725B or C amplifier at a holding potential of −40 mV.
(Two-electrode voltage clamp is typically applied to oocytes expressing channels or transporters.)

Data set [2] deals with T2, GluN2C-containing receptors (Rattus norvegicus, UniProt Q00961).
T2 construct: expressed in transfected cells; host or cells: Xenopus laevis oocytes
T2 sequence (Q00961 20-1237, other chains not shown): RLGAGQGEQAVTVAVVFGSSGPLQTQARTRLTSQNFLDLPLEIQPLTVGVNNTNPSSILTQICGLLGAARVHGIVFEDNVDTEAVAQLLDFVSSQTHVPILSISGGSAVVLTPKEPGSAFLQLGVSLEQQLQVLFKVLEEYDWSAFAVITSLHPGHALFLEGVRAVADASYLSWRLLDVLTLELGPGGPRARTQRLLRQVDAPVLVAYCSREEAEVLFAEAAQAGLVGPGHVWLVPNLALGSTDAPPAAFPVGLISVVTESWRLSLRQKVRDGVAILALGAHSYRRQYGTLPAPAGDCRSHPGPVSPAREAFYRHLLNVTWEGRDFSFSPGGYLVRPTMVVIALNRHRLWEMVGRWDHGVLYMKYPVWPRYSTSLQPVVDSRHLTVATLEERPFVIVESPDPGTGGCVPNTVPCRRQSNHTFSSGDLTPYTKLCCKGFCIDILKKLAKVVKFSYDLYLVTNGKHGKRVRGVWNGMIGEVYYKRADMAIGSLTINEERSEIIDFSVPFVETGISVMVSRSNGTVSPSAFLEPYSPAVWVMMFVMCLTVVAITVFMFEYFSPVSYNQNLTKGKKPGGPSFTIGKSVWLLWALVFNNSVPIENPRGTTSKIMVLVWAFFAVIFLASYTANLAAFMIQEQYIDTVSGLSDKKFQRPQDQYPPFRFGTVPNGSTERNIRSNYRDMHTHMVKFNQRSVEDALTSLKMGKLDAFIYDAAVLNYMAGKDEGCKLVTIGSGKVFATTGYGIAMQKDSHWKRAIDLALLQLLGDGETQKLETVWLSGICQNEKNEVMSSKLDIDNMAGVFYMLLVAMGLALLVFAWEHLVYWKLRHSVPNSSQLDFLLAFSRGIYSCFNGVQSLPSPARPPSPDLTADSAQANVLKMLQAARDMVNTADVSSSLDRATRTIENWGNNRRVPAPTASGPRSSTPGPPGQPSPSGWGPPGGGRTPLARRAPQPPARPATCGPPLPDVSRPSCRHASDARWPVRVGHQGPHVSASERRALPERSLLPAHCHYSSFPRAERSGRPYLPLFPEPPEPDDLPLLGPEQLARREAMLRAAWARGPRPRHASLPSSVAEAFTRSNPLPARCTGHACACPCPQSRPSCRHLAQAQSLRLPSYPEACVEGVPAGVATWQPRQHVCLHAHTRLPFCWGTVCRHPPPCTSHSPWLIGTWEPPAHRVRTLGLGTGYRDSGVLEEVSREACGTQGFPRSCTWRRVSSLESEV
Kind of data set: Two-electrode voltage-clamp inhibition of GluN2C-containing NMDA receptors in Xenopus laevis oocytes. The data set is classed as cell-based. The protocol: as §1, §2

The subject of data set [3] is GluN2C- and GluN2D-containing NMDA receptors. Kind of data set: NMDA receptor inhibition and subunit selectivity, GluN2C/GluN2D not told apart. Format: cell-based. As for the experimental part: as §1, §2
Data set [4] concerns the target T3, GluN2C-containing receptors (Rattus norvegicus, UniProt P35439+Q00961).
T3 construct: expressed in transfected cells; host or cells: Xenopus laevis oocytes
Kind of data set: Two-electrode voltage-clamp inhibition of GluN2C-containing NMDA receptors in Xenopus laevis oocytes. The data set is classed as cell-based. The protocol:
as §1, §2

Data set [5] addresses T4, GluN2D-containing receptors (Rattus norvegicus, UniProt P35439+Q62645).
T4 construct: expressed in transfected cells; host or cells: Xenopus laevis oocytes
Kind of data set: Two-electrode voltage-clamp inhibition of GluN2D-containing NMDA receptors in Xenopus laevis oocytes. The data set is classed as cell-based. The following applies: GluN2D-containing receptors. The protocol: as §1, §2

Data set [6] in a line: Plasma stability, rat. Format: in vitro ADME. The following applies: two-hour time-course. The protocol: (§3) Three analogs, (58) 997-33, (26)997-23 and (64) 997-57 were evaluated for plasma stability as well as aqueous solubility. […] The aqueous solubility of compounds (26)997-23 and (58) 997-33 was evaluated in oocyte recording buffer using nephelometry. […] In order to assess the potential BBB penetration, compounds (26)997-23 and (64)997-57 were selected for evaluation in the MDR1-MDCK permeability assay (FIG. 19). […] The same compounds were also evaluated for metabolic stability using human liver microsomes.

The nature of data set [7]: Plasma stability, mouse. The data set is classed as in vitro ADME. The following applies: two-hour time-course. As for the experimental part: as §3
The test system of data set [8] is MDR1-MDCK cell monolayers. Nature of the data set: MDR1-MDCK permeability assay. The data set is classed as in vitro ADME. The following applies: for BBB penetration classification: from Papp and efflux ratio in MDR1-MDCK. The protocol:
The Papp and efflux ratio were calculated as described in the Methods. […] See Wang et al., International Journal of Pharmaceutics, 2005, 288, 349-359.
Cell monolayers were grown to confluence on collagen-coated, microporous, polycarbonate membranes in 12-well Costar Transwell® plates. The permeability assay buffer was Hanks Balanced Salt Solution containing 10 mM HEPES and 15 mM glucose at pH 7.4. The buffer in the receiver chamber also contained 1% bovine serum albumin. The dosing solution concentration in the assay buffer was 5 μM for each compound tested. The cell monolayers were dosed on the apical side (A-to-B) or basolateral side (B-to-A) and incubated at 37° C. with 5% CO2 in a humidified incubator. Samples were taken from the donor and receiver chambers at 120 minutes. Each determination was performed in duplicate. The co-dosed lucifer yellow flux was also measured for each monolayer to ensure no damage was inflicted to the cell monolayers during the flux period. All samples were assayed by LC-MS/MS using electrospray ionization. The apparent permeability (Papp) and percent recovery were calculated as follows. […] Human Liver Microsomal Stability

A short description of data set [9]: Plasma stability, human. The data set is classed as in vitro ADME. The following applies: two-hour time-course. As for the experimental part:
as §3

[10] abbreviates: GluN2D-containing receptors, read-out: inhibition IC50 for GluN2D.

SMILES strings stand for the structures. Like-named read-outs stand apart in the source and are kept apart here.

The source of these data is patent US12312328B2, “Pyrazoline dihydroquinolones, pharmaceutical compositions, and uses” (Emory University, priority 2013, dated 2025).

T3 sequence (Q00961 20-1237, other chains not shown): as above
T1 sequence (Q62645 28-1323, other chains not shown): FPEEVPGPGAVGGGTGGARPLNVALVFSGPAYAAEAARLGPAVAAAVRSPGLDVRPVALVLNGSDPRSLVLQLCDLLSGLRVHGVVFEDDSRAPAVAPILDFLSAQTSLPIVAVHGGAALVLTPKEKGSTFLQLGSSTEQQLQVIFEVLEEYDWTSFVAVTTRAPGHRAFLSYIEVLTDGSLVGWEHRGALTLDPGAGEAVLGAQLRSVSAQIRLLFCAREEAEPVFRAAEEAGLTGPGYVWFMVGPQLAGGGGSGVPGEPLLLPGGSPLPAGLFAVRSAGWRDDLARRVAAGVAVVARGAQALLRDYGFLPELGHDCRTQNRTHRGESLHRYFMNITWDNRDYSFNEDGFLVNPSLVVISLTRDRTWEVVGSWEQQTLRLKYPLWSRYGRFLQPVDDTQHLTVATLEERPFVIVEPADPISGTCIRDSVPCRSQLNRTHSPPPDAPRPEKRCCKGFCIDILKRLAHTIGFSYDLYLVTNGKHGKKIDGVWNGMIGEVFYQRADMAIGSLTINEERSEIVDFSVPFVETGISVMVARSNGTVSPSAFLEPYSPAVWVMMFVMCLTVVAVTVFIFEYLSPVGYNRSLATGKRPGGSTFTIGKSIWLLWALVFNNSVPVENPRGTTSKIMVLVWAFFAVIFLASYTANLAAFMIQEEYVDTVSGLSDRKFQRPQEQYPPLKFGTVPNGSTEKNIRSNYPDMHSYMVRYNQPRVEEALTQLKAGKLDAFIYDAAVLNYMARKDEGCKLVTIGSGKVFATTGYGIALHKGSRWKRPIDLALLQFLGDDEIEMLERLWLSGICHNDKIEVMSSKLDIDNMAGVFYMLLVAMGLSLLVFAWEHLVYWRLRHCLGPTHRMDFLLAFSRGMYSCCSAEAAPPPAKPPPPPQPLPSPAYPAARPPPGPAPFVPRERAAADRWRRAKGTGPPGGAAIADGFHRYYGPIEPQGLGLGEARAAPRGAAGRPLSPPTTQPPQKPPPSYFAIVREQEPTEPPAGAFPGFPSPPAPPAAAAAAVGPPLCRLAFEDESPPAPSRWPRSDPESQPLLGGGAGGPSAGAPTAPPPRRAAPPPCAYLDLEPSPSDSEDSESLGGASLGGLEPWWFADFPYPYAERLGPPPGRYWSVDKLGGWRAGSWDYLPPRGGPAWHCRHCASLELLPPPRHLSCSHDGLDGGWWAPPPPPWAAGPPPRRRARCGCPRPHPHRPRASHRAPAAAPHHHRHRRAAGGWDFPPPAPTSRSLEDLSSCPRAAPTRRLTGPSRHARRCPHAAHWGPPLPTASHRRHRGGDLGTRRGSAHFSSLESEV
T4 sequence (Q62645 28-1323, other chains not shown): as above

Turning to `O=C(O)CCC(=O)N1N=C(c2c(-c3cc(F)cc(F)c3)c3ccccc3[nH]c2=O)CC1c1ccc(Cl)cc1` (stereo not drawn) [Compound 997-35, 4-(5-(4-Chlorophenyl)-3-(4-(3,5-difluorophenyl)-2-oxo-1,2-dihydroquinolin-3-yl)-4,5-dihydro-1H-pyrazol-1-yl)-4-oxobutanoic acid], in data set [1], the “potency at GluN2D-containing receptors, in words” value (“potency” for short) is reported as “submicromolar”.
Regarding `O=C(O)CCCN1N=C(c2c(-c3ccc(Cl)cc3)c3ccccc3[nH]c2=O)CC1c1ccc(Cl)cc1` (stereo not drawn) [Compound 997-63, 4-(5-(4-Chlorophenyl)-3-(4-(4-chlorophenyl)-2-oxo-1,2-dihydroquinolin-3-yl)-4,5-dihydro-1H-pyrazol-1-yl)butanoic acid], the IC50 (commonly the point on the concentration scale where inhibition reaches its midpoint) in [2] was found to be 3000 nM; in [1] (setting [10]), 1.7 µM.
For `O=C(O)CCC(=O)N1N=C(c2c(-c3ccccc3)c3cc(Cl)ccc3[nH]c2=O)CC1c1ccc(C(=O)O)cc1` (stereo not drawn) [Compound 997-5, 4-(1-(3-Carboxypropanoyl)-3-(6-chloro-2-oxo-4-phenyl-1,2-dihydroquinolin-3-yl)-4,5-dihydro-1H-pyrazol-5-yl)benzoic acid], the “activity at NMDA receptors, in words” value in [3] is on record as “no activity”.
Turning to `O=C(CC(F)(F)CO)N1N=C(c2c(-c3ccc(Cl)cc3)c3ccccc3[nH]c2=O)CC1c1ccc(Cl)cc1` (stereo not drawn) [4-(4-chlorophenyl)-3-(5-(4-chlorophenyl)-1-(3,3-difluoro-4-hydroxybutanoyl)-4,5-dihydro-1H-pyrazol-3-yl)quinolin-2(1H)-one], the IC50 in [4] was 1600 nM; in data set [5], 800 nM.
For `O=C(O)CC(F)(F)C(=O)N1N=C(c2c(-c3ccc(Cl)cc3)c3ccccc3[nH]c2=O)CC1c1ccc(Cl)cc1` (stereo not drawn) [4-(5-(4-chlorophenyl)-3-(4-(4-chlorophenyl)-2-oxo-1,2-dihydroquinolin-3-yl)-4,5-dihydro-1H-pyrazol-1-yl)-3,3-difluoro-4-oxobutanoic acid], in that order: 390 nM and 50 nM.
As for `O=C(O)CCC(=O)N1N=C(c2c(-c3ccccc3)c3cc(Cl)ccc3[nH]c2=O)CC1c1ccc(C(F)(F)F)cc1` (stereo not drawn) [Compound 997-8, 4-(3-(6-Chloro-2-oxo-4-phenyl-1,2-dihydroquinolin-3-yl)-5-(4-(trifluoromethyl)phenyl)-4,5-dihydro-1H-pyrazol-1-yl)-4-oxobutanoic acid], the half-maximal inhibitory concentration (IC50) in [1] (setting [10]) came out at 4.1 µM.
`COC(=O)c1ccc(C2CC(c3c(-c4ccccc4)c4cc(Cl)ccc4[nH]c3=O)=NN2C(=O)CCC(=O)O)cc1` (stereo not drawn) [Compound 997-6, 4-(3-(6-Chloro-2-oxo-4-phenyl-1,2-dihydroquinolin-3-yl)-5-(4-(methoxycarbonyl)phenyl)-4,5-dihydro-1H-pyrazol-1-yl)-4-oxobutanoic acid]: in [1] (subunit inferred, GluN2D by context of b229, read-out: IC50 (potency, FIG. 10)), the IC50 came out at 32 µM.
Turning to `O=C(O)CCC(=O)N1N=C(c2c(-c3ccncc3)c3ccccc3[nH]c2=O)CC1c1ccc(Cl)cc1` (stereo not drawn) [4-(5-(4-chlorophenyl)-3-(2-oxo-4-(pyridin-4-yl)-1,2-dihydroquinolin-3-yl)-4,5-dihydro-1H-pyrazol-1-yl)-4-oxobutanoic acid], the IC50 in data set [4] was 15000 nM; in data set [5] it was 8100 nM.
In the case of `COC(=O)CCC(=O)N1N=C(c2c(-c3ccccc3)c3cc(Cl)ccc3[nH]c2=O)CC1c1ccc(Br)cc1` (stereo not drawn) [Compound 997-11, Methyl 4-(5-(4-bromophenyl)-3-(6-chloro-2-oxo-4-phenyl-1,2-dihydroquinolin-3-yl)-4,5-dihydro-1H-pyrazol-1-yl)-4-oxobutanoate], the “activity at NMDA receptors, in words” value in data set [3] was “inactive”.
Consider `O=C(O)CCC(=O)N1N=C(c2c(-c3ccc(F)c(F)c3)c3ccccc3[nH]c2=O)CC1c1ccc(Cl)cc1` (stereo not drawn) [Compound 997-42, 4-(5-(4-Chlorophenyl)-3-(4-(3,4-difluorophenyl)-2-oxo-1,2-dihydroquinolin-3-yl)-4,5-dihydro-1H-pyrazol-1-yl)-4-oxobutanoic acid], for which, in [1], the “potency” value is reported as “submicromolar”.
The same measure, in the same setting: the entry for `O=C(O)CCC(=O)N1N=C(c2c(-c3ccc(F)c(Cl)c3)c3ccccc3[nH]c2=O)CC1c1ccc(Cl)cc1` (stereo not drawn) [Compound 997-34, 4-(3-(4-(3-Chloro-4-fluorophenyl)-2-oxo-1,2-dihydroquinolin-3-yl)-5-(4-chlorophenyl)-4,5-dihydro-1H-pyrazol-1-yl)-4-oxobutanoic acid] is “submicromolar”.
With `O=C(CC(F)(F)CO)N1N=C(c2c(-c3ccc(Cl)cc3)c3ccccc3[nH]c2=O)C[C@H]1c1ccc(Cl)cc1` [(S)-4-(4-chlorophenyl)-3-(5-(4-chlorophenyl)-1-(3,3-difluoro-4-hydroxybutanoyl)-4,5-dihydro-1H-pyrazol-3-yl)quinolin-2(1H)-one], the IC50 worked out at 1400 nM in data set [4] and 600 nM in data set [5].
In the case of `O=C(CCCO)N1N=C(c2c(-c3ccc(Cl)cc3)c3ccccc3[nH]c2=O)CC1c1ccc(Cl)cc1` (stereo not drawn) [Compound 997-57, 4-(4-Chlorophenyl)-3-(5-(4-chlorophenyl)-1-(4-hydroxybutanoyl)-4,5-dihydro-1H-pyrazol-3-yl)quinolin-2(1H)-one], the plasma stability entry in data set [6], in [7] and in data set [9] was “minimal degradation” throughout. The “Papp A-B” value in [8] (MDR1-MDCK, 5 μM, 120 minutes) worked out at 2.46e-06 cm/s. For the same compound, the BBB penetration classification result in data set [8] is “low BBB potential”. In [3] (activity at GluN2C- and GluN2D-containing receptors versus GluN2A), the “selectivity over GluN2A-containing receptors” value was determined as 90 fold.
For `O=C(O)CCC(=O)N1N=C(c2c(-c3cc(Cl)cc(Cl)c3)c3ccccc3[nH]c2=O)CC1c1ccc(Cl)cc1` (stereo not drawn) [Compound 997-37], the “potency” value in [1] is reported as “submicromolar”.
As to `O=C(CC(F)(F)CO)N1N=C(c2c(-c3ccc(Cl)cc3)c3ccccc3[nH]c2=O)C[C@@H]1c1ccc(Cl)cc1` [(R)-4-(4-chlorophenyl)-3-(5-(4-chlorophenyl)-1-(3,3-difluoro-4-hydroxybutanoyl)-4,5-dihydro-1H-pyrazol-3-yl)quinolin-2(1H)-one], the 50% inhibitory concentration (IC50) stood at 8500 nM in data set [4] and 3600 nM in [5].
As to `COC(=O)/C=C/C(=O)N1N=C(c2c(-c3ccc(Br)cc3)c3ccccc3[nH]c2=O)CC1c1ccc(Cl)cc1` (stereo not drawn) [Compound 997-31, (E)-Methyl 4-(3-(4-(4-bromophenyl)-2-oxo-1,2-dihydroquinolin-3-yl)-5-(4-chlorophenyl)-4,5-dihydro-1H-pyrazol-1-yl)-4-oxobut-2-enoate], the “activity at NMDA receptors, in words” value in data set [3] is “inactive”.
Consider `O=C(O)CCC(=O)N1N=C(c2c(-c3ccc(Cl)c(Cl)c3)c3ccccc3[nH]c2=O)CC1c1ccc(Cl)cc1` (stereo not drawn) [Compound 997-41, 4-(5-(4-Chlorophenyl)-3-(4-(3,4-dichlorophenyl)-2-oxo-1,2-dihydroquinolin-3-yl)-4,5-dihydro-1H-pyrazol-1-yl)-4-oxobutanoic acid], for which the “potency” value in data set [1] is listed as “submicromolar”.
As for `O=C(CC(F)(F)C(=O)O)N1N=C(c2c(-c3cccc(F)c3)c3ccccc3[nH]c2=O)CC1c1ccc(Cl)cc1` (stereo not drawn) [4-(5-(4-chlorophenyl)-3-(4-(3-fluorophenyl)-2-oxo-1,2-dihydroquinolin-3-yl)-4,5-dihydro-1H-pyrazol-1-yl)-2,2-difluoro-4-oxobutanoic acid], the IC50 in data set [4] was found to be 600 nM; in data set [5], 500 nM.
`O=C(CCCF)N1N=C(c2c(-c3ccc(Cl)cc3)c3ccccc3[nH]c2=O)CC1c1ccc(Cl)cc1` (stereo not drawn) [Compound 997-64, 4-(4-Chlorophenyl)-3-(5-(4-chlorophenyl)-1-(4-fluorobutanoyl)-4,5-dihydro-1H-pyrazol-3-yl)quinolin-2(1H)-one]: in data set [8] (MDR1-MDCK, 5 μM, 120 minutes), the “Papp A-B” value worked out at 3.88e-06 cm/s and the “Papp B-A” value was found to be 9.52e-06 cm/s. Moreover, in data set [8], the BBB penetration classification result is recorded as “highly brain penetrable”.
